These results are taken from patent publication US12391643B2, “Substituted amino-thiol and amino-disulfide compounds, and uses thereof” (The Regents of the University of California, priority 2019, dated 2025).

Where a name gives a salt, the structure may show the parent alone.

One data set deals with Pooled human hepatocytes. Nature of the data set: Hepatocyte elimination (in vitro metabolic stability, percent parent remaining by LC/MS/MS). The format is in vitro ADME. The settings on record: for Rate of hepatocyte elimination / stability, comparison in words: compared with other forms. An excerpt:
In vitro experiments with isotopically enriched cystamine and cysteamine in hepatocytes.
The assessment of in vitro metabolic stability provides a means to measure the susceptibility of a test compound to biotransformation by the liver. While liver microsomes primarily assess cytochrome P450 system-mediated metabolism (phase I metabolism), hepatocytes represent a complete, undisrupted metabolic system, including cofactors, and thus assess both phase I and phase II metabolism. In all cases, the metabolic stability of test compounds was determined by monitoring, via LC/MS/MS, the percent parent compound remaining versus time of incubation in human hepatocytes.
Pooled human hepatocytes (catalog number HMCS10, ThermoFischer Scientific) were thawed according to the manufacturers instructions. Thawed hepatocytes were washed by centrifugation and replated in Williams' Medium E supplemented with Heptocyte Plating Supplement Pack, Serum-containing.
Cells were diluted to 1,000,000 per ml in maintenance media (Williams' E Media supplemented with Hepatocyte Maintenance Supplement Pack, Serum-free). 500 μl of cell suspension was added to each well of a microtiter plate containing 500 μl of the deuterated test agent and placed on an orbital shaker at 120 rpm at 37 C. At the appropriate time point 50 μl aliquots were removed from the well and added to 50 μl of ice cold ethyl acetate and vortexed for 5 min and froze until chromatography analysis.

The test system of data set [1] is cystinotic fibroblasts. Nature of the data set: Intracellular NEM-cysteamine, NEM-cysteine, cystamine and mixed disulfide levels in cystinotic fibroblasts. The format is cell-based, human. Conditions: washout period. On the procedure:
(§1) In vitro experiments with isotopically enriched cystamine in cystinotic fibroblasts. Fibroblasts from a de-identified cystinotic patient were split 3× from 2 plates into 36 plates. Three different drugs were used for the experiments: cystamine (non-labeled), d2-cystamine, and d4-cystamine. There were two time series for each drug. The first was with constant drug incubation and included: 0, 10 min, 30 min, 1 h, 3 h, and 5 h. The other series included a washout after 3 h drug incubation, using fresh media following a PBS wash, and included the timepoints: 0, 30 min, 1 h, 3 h, 5 h, and 17 h. A direct quench and extraction technique were used for harvesting all cells to minimize further oxidation and metabolism. This included 2× washes with PBS that included 5 mM N-ethylmaleimide for trapping free thiol groups, and then scraping the plates with an acidified organic solvent extraction solution containing both d4-cystine and d4-cysteamine (plus d-8 cystamine) as internal standards. All samples were run on an API 4500 triple quadrupole LC-MS/MS, with selective reaction monitoring (SRM/MRM) for the following compounds of interest: cystine, NEM-cysteamine, NEM-cysteine, cystamine, and 2-(methylthio)ethylamine. All data fit well to single exponential curves (either decay or association), except where mentioned.
NEM-cysteamine and NEM-cysteine during constant incubation. Fibroblast cultures were exposed to drug (either cystamine, d2-cystamine, or d4-cystamine) and harvested as described on page 2 for the cystine depletion curve. NEM-cysteamine (or NEM-d1-cysteamine or NEM-d2-cysteamine) was measured for each respective plate and normalized against the signal for d4-cystine.
NEM-cysteamine during washout. Fibroblast cultures were exposed to drug (either cystamine, d2-cystamine, or d4-cystamine) for 3 h were then exposed to media for various timepoints and harvested as previously described.
NEM-cysteine during washout. Fibroblast cultures were exposed to drug (either cystamine, d2-cystamine, or d4-cystamine) for 3 h were then exposed to media for various timepoints and harvested as previously described.
Cystamine during constant drug incubation. Fibroblast cultures were exposed to drug (either cystamine, d2-cystamine, or d4-cystamine) for various timepoints following harvesting as described earlier. Cystamine could be measured in the non-labeled cystamine incubation as well as the d4-cystamine incubation. d2-cystamine could not be accurately measured due to a strong background interference signal corresponding to that mass. No cystamine could be measured in the washout experiments.

Data set [2] has as its system cystinotic fibroblasts. Nature of the data set: Cystine depletion during constant drug exposure in cystinotic fibroblasts. Conditions: 100 uM constant exposure, 0-5 h, vs cystamine. The format is cell-based, human. On the procedure:
as §1
Following incubation, cells were washed 2× in PBS containing N-ethylmaleimide.
(§2) Fibroblasts from a de-identified cystinotic patient were split 3× from 2 plates into 18 plates. Two different drugs were used for the experiments: D4n-cystamine, and D8-cystamine. There were two time series for each drug. The first was with constant drug incubation and included: 0, 15 min, 30 min, 1 hr, and 3 hr. The other series included a washout after 3 hours of drug incubation, using fresh media following a PBS wash, and included the time-points: 0, 1 hr, 3 hr, and 16 hr. A direct quench and extraction technique was used for harvesting all cells to minimize further oxidation and metabolism. […] All samples were run on an API 4500 triple quadruple LC-MS/MS, with selective reaction monitoring (SRM/MRM) for the following compounds of interest: cystine, NEM-cysteamine, NEM-cysteine, and cystamine. All data fit well to single exponential curves (either decay or association), except where mentioned.

The subject of data set [3] is C57BL/6 male mice on CDAHFD diet. The data set can be described thus: In vivo NASH model, prevention phase (drug in drinking water, 8 weeks). Conditions: about 200 mg/kg/day in drinking water, n=8 per group. As to the method:
(§3) In vivo NASH Models. NASH models from normal C57BL/6 male mice on CDAHFD diet (choline deficient, L-amino acid defined, high fat diet with restricted amount of methionine) were used. Two deuterated cystamine molecules were tested:
(§4) Two phase study was performed: (1) A prevention and (2) a treatment phase. 48 Mice were separated into nine groups of mice as described below. Histology at end of each study was performed looking for specific features of NASH (steatohepatitis, ballooning, fibrosis). The primary endpoint was plasma ALT measurement. Gene expression studies for fibrosis, inflammation were also performed.
Drug (D2 or D4) was administered in drinking water at a concentration to deliver animals about 200 mg/kg/day of drug. Daily weight. Volume of fluid drunk/day was also measured.
Prevention Phase. Group 1: Control mice on CDAHFD for 8 weeks. Blood drawn at 0, 4, and 8 weeks. Group 2: Mice on CDAHFD plus D2 at 200 mg/kg/day for 8 weeks. Blood drawn at 0, 4, and 8 weeks. Group 3: Mice on CDAHFD plus D4 at 200 mg/kg/day for 8 weeks. Blood drawn at 0, 4, and 8 weeks. Group 4: Control mice (n=4) continue on CDAHFD for 2 weeks. Blood at baseline and at 2 weeks. Liver histology at 2 weeks. Group 5: Mice (n=4) on CDAHFD for 2 weeks plus D2 at 200 mg/kg/day administered via daily gavage. Blood at 0 and 2 weeks and histology at 2 weeks. […]

Data set [4] has as its system cystinotic fibroblasts. The data set can be described thus: Cystine re-accumulation after washout in cystinotic fibroblasts. The format is cell-based, human. Conditions: for Cystine reaccumulation after washout, D4n vs D8: 50 μM for 3 hours, then media 1 h, 3 h, 16 h. On the procedure: as §1
Cystine measurement after washout: Fibroblast cultures were exposed to 100 uM cystamine/d2-cystamine/d4-cystamine for 3 h. Following incubation, cells were washed with PBS, and then incubated with regular media (containing FBS) for the following timepoints: 0 min, 30 min, 1 h, 3 h, 5 h, and 17 h. Cells were harvested identically as described previously.
as §2
Fibroblast cultures were exposed to 50 μM cystamine (D8 or D4n) for 3 hours. Following incubation, cells were washed with PBS and then incubated with regular mediate containing FBS for 1 h, 3 h, and 16 h. Cells were harvested as above. […] Cystine reaccumulation between D4n-cystamine and D8-cystamine are very similar, indicating similar levels of drug remaining during the washout timepoints (FIG. 15).

In data set [5] the test system is C57BL/6 male mice on CDAHFD diet. Nature of the data set: In vivo NASH model, treatment phase (8 weeks CDAHFD, then 2 weeks daily gavage). Conditions: for Fatty deposits / fat globules in liver, H&E staining: 200 mg/kg/day. On the procedure: Liver Inflammatory Cells. CD11b stains macrophages and microglia. CD11b staining of liver tissue was taken after 10 weeks of CDAHFD in three groups of mice. […] At 8 weeks, treatment group 2 (“C2”) mice started gavage feeding with D2-Cystamine at 200 mg/kg/day once daily gavage, and treatment group 3 (“C3”) mice received D4-Cystamine at 200 mg/kg/day by once daily gavage.
as §3, §4
Prevention Phase. Group 1: Control mice on CDAHFD for 8 weeks. Blood drawn at 0, 4, and 8 weeks. Group 2: Mice on CDAHFD plus D2 at 200 mg/kg/day for 8 weeks. Blood drawn at 0, 4, and 8 weeks. Group 3: Mice on CDAHFD plus D4 at 200 mg/kg/day for 8 weeks. Blood drawn at 0, 4, and 8 weeks. Group 4: Control mice (n=4) continue on CDAHFD for 2 weeks. Blood at baseline and at 2 weeks. Liver histology at 2 weeks. Group 5: Mice (n=4) on CDAHFD for 2 weeks plus D2 at 200 mg/kg/day administered via daily gavage. Blood at 0 and 2 weeks and histology at 2 weeks. Group 6: Mice (n=4) on CDAHFD for 2 weeks plus D4 at 200 mg/kg/day administered via daily gavage. Blood at 0 and 2 weeks and histology at 2 weeks.
Treatment Study Results. Groups 4, 5 and 6 mice received 8 weeks of CDAHDF diet before beginning treatment with deuterated compounds of the disclosure. During the treatment phase the mice continued to receive CDAHDF diet. Four mice were set in each group: control (C1) not receiving any drug; treatment (C2) receiving 200 mg/kg of cystamine D2 by once daily gavage; and treatment (C3) receiving 200 mg/kg cystamine D4 by once daily gavage.

The subject of a further data set is steatosis. Conditions: 400-1000 IU/day for 4-10 months, cited from earlier work.

With “2-aminoethane-1-d-1-thiol hydrochloride [D-cysteamine]”, the “Rate of hepatocyte elimination / stability, comparison in words” value in the data set on Pooled human hepatocytes is “slower rate than cysteamine bitartrate”.

Regarding `NCCS.O=C(O)C(O)C(O)C(=O)O` (stereo not drawn) [Cysteamine Bitartrate, reference compound], the “Hepatocyte elimination, % remaining” value in the data set on Pooled human hepatocytes (TIME 0 min) is 100%; in the data set on Pooled human hepatocytes (TIME 15 min) it was 15.4%; in the data set with Pooled human hepatocytes (TIME 30 min), 2.7%; in the data set on Pooled human hepatocytes (TIME 60 min) it was 1.2%.

For the compound `[2H]C(CN)SSC([2H])CN` (stereo not drawn) [D2-Cystamine, 2,2′-disulfanediylbis(ethan-2-d-1-amine)dihydrochloride], the “NEM-cysteine level after 3 h incubation and washout” value in the data set with cystinotic fibroblasts [1] was “rise and increase”; in the data set on cystinotic fibroblasts [1] (listed as D2), “higher cysteine levels”. The results for the “Rate of intracellular cystine depletion, comparison in words” value with cystinotic fibroblasts [2] (listed as D2-cystamine), in the data set with cystinotic fibroblasts [2] (listed as d2-Cystamine) and in the data set with cystinotic fibroblasts [2] (listed as d2-cystamine) were “slightly slower kinetics”, “slightly slower kinetics” and “slower”, respectively. Also, the “ALT levels at 8 weeks versus control group” value in data set [3] is on record as “statistically significant difference”. Also, in the data set with Pooled human hepatocytes, the “Rate of hepatocyte elimination / stability, comparison in words” value is listed as “slower than non-deuterated cystamine”. Moreover, in the data set on cystinotic fibroblasts [4] (100 uM for 3 h, then drug-free media up to 17 h, vs cystamine), the “Cystine re-accumulation after washout, comparison in words” value is listed as “slightly faster”. For the same compound, the “ALT versus untreated control group” value in data set [5] (200 mg/kg once daily gavage, 2 weeks) is reported as “significantly lower”. Besides, the “Hepatic fibrosis, Sirius Red staining of liver sections” value in data set [5] (200 mg/kg once daily gavage, 2 weeks, listed as D2) was “significant reduction in the amount of positive liver staining”; in data set [5] (200 mg/kg once daily gavage, 2 weeks, listed as cystamine D2), “very significant reduction in hepatic fibrosis”. Moreover, the “Number of CD11b positive cells in liver tissue versus control group” value in data set [5] (200 mg/kg/day once daily gavage, 2 weeks) is recorded as “statistically significant reduction”. Further, the “Fatty deposits / fat globules in liver, H&E staining” value in data set [5] (2 weeks) is “reduction in fatty globules”; in data set [5] (2 weeks, listed as D2), “reduced fatty deposits compared to control”. Also, in data set [5] (liver, 2 weeks of treatment), the “TIMP expression, qPCR, versus control” value is “significant reduction”.

With `Cl.[2H]C([2H])(S)CN` [D2-cysteamine, 2-mercaptoethan-2,2-d2-1-aminium chloride], the “Rate of hepatocyte elimination / stability, comparison in words” value in the data set with Pooled human hepatocytes was “slower rate than cysteamine bitartrate”.

On to `[2H]C([2H])(N)CSSCC([2H])([2H])N` [D4n-cystamine, 2,2′-disulfanediylbis(ethan-1,1-d2-1-aminium) chloride], for which the “Cystine reaccumulation after washout, D4n vs D8” value with cystinotic fibroblasts [4] is “very similar”.

With `[2H]C([2H])(N)C([2H])([2H])SSC([2H])([2H])C([2H])([2H])N` [D8-cystamine], the “Cystine reaccumulation after washout, D4n vs D8” value with cystinotic fibroblasts [4] is “very similar”.

Take `[2H]C(CN)SSC([2H])CN` (stereo not drawn) [drawing 24]: the “Hepatocyte elimination, % remaining” value is listed as 100% in the data set with Pooled human hepatocytes (TIME 0 min), 22.6% with Pooled human hepatocytes (TIME 15 min), 24.3% in the data set on Pooled human hepatocytes (TIME 30 min) and 0% in the data set on Pooled human hepatocytes (TIME 60 min).

`[2H]C([2H])(CN)SSC([2H])([2H])CN` [drawing 25]: the “Hepatocyte elimination, % remaining” value in the data set with Pooled human hepatocytes (TIME 0 min) is 100%; in the data set on Pooled human hepatocytes (TIME 15 min) it was 131.4%; in the data set with Pooled human hepatocytes (TIME 30 min), 35.9%; with Pooled human hepatocytes (TIME 60 min) it was 14.5%.

For vitamin E, the “Mean AST level after treatment” value with steatosis (decreased from 104±61 IU/L) was 33±11 IU/L. Also, in the data set with steatosis (decreased from 175±106 IU/L), the “Mean ALT level after treatment” value is 40±26 IU/L.
